≈ marks a conversion by molar mass, not a printed value.

Data set [1] has as its system Staphylococcus aureus. Put plainly: Inhibitory effect against methicillin resistant Staphylococcus aureus (A 27217), expressed as minimum inhibitory concentration. In kind it is functional.
For data set [2], the system named is Staphylococcus aureus. The data set is described as follows: Inhibitory effect against methicillin resistant Staphylococcus aureus (A 27223), expressed as minimum inhibitory concentration. In kind it is functional.
Data set [3] concerns Staphylococcus aureus. Put plainly: Inhibitory effect against methicillin resistant Staphylococcus aureus (A 27621), expressed as minimum inhibitory concentration. In kind it is functional.
The test system of data set [4] is Staphylococcus aureus. Put plainly: Inhibitory effect against methicillin resistant Staphylococcus aureus (A 27218), expressed as minimum inhibitory concentration. In kind it is functional.
The subject of data set [5] is Staphylococcus aureus. The data set is described as follows: Inhibitory effect against methicillin susceptible Staphylococcus aureus (A 15090), expressed as minimum inhibitory concentration. In kind it is functional.
Data set [6] is described as follows: In vitro half life in human plasma was determined. In kind it is ADME, cell-free.
Another data set deals with Mus musculus. The data set is described as follows: In vivo protective dose against MRSA (strain A 27223). In kind it is functional. Particulars: read-out: PD50.
Data set [7] has as its system Staphylococcus aureus. The data set is described as follows: Minimum inhibitory concentration against MRSA (strain A 27223).

Consider `Cc1ccc(C(=O)OCC2=C(C(=O)O)N3C(=O)[C@@H](NC(=O)CSc4cc(Cl)ccc4Cl)C3SC2)cc1` (stereo not given in full), for which the MIC with Staphylococcus aureus [1] turned out to be 0.5 µg/mL (≈ 0.881 µM); in the data set with Staphylococcus aureus [2], 0.5 µg/mL (≈ 0.881 µM); in the data set on Staphylococcus aureus [3], 0.25 µg/mL (≈ 0.441 µM); against Staphylococcus aureus [4] it was 0.06 µg/mL (≈ 0.106 µM); against Staphylococcus aureus [5] it was 0.125 µg/mL (≈ 0.22 µM).
Consider `O=C(CSc1cc(Cl)ccc1Cl)N[C@@H]1C(=O)N2C(C(=O)O)=C(COC(=O)c3cccnc3)CSC12` (stereo not given in full), for which the MIC against Staphylococcus aureus [1] was 2 µg/mL (≈ 3.61 µM); in the data set on Staphylococcus aureus [2], 4 µg/mL (≈ 7.21 µM); in the data set on Staphylococcus aureus [3] it was 4 µg/mL (≈ 7.21 µM); in the data set with Staphylococcus aureus [4] it was 2 µg/mL (≈ 3.61 µM); against Staphylococcus aureus [5], 0.125 µg/mL (≈ 0.225 µM).
Turning to `CC(=O)Nc1ccc(C(=O)OCC2=C(C(=O)O)N3C(=O)[C@@H](NC(=O)CSc4cc(Cl)ccc4Cl)C3SC2)cc1` (stereo not given in full), the MIC was 0.5 µg/mL (≈ 0.819 µM) with Staphylococcus aureus [1]; 1 µg/mL (≈ 1.64 µM) in the data set on Staphylococcus aureus [2]; 1 µg/mL (≈ 1.64 µM) with Staphylococcus aureus [3]; 0.5 µg/mL (≈ 0.819 µM) against Staphylococcus aureus [4]; 0.06 µg/mL (≈ 0.0983 µM) against Staphylococcus aureus [5].
`C[n+]1ccc(C(=O)OCC2=C(C(=O)[O-])N3C(=O)[C@@H](NC(=O)CSc4cc(Cl)ccc4Cl)C3SC2)cc1` (stereo not given in full): the MIC turned out to be 8 µg/mL (≈ 14.1 µM) in the data set on Staphylococcus aureus [1]; 32 µg/mL (≈ 56.3 µM) in the data set on Staphylococcus aureus [2]; 32 µg/mL (≈ 56.3 µM) in the data set on Staphylococcus aureus [3]; 2 µg/mL (≈ 3.52 µM) in the data set on Staphylococcus aureus [4]; 0.125 µg/mL (≈ 0.22 µM) against Staphylococcus aureus [5].
`C[n+]1cccc(C(=O)OCC2=C(C(=O)[O-])N3C(=O)[C@@H](NC(=O)CSc4cc(Cl)ccc4Cl)C3SC2)c1` (stereo not given in full): the MIC against Staphylococcus aureus [1] is 64 µg/mL (≈ 113 µM); against Staphylococcus aureus [2], 64 µg/mL (≈ 113 µM); against Staphylococcus aureus [3], 64 µg/mL (≈ 113 µM); with Staphylococcus aureus [4], 32 µg/mL (≈ 56.3 µM); in the data set with Staphylococcus aureus [5], 0.5 µg/mL (≈ 0.88 µM).
On to `COc1ccc(C(=O)OCC2=C(C(=O)O)N3C(=O)[C@@H](NC(=O)CSc4cc(Cl)ccc4Cl)C3SC2)cc1` (stereo not given in full), for which the MIC against Staphylococcus aureus [1] came to 0.06 µg/mL (≈ 0.103 µM); against Staphylococcus aureus [2] it was 0.5 µg/mL (≈ 0.857 µM); in the data set on Staphylococcus aureus [3] it was 0.5 µg/mL (≈ 0.857 µM); in the data set with Staphylococcus aureus [4], 0.125 µg/mL (≈ 0.214 µM); in the data set on Staphylococcus aureus [5], 0.06 µg/mL (≈ 0.103 µM).
With `N#Cc1ccc(C(=O)OCC2=C(C(=O)O)N3C(=O)[C@@H](NC(=O)CSc4cc(Cl)ccc4Cl)C3SC2)cc1` (stereo not given in full), the MIC against Staphylococcus aureus [1] stood at 0.125 µg/mL (≈ 0.216 µM); against Staphylococcus aureus [2], 1 µg/mL (≈ 1.73 µM); against Staphylococcus aureus [3], 0.5 µg/mL (≈ 0.864 µM); against Staphylococcus aureus [4] it was 0.125 µg/mL (≈ 0.216 µM); against Staphylococcus aureus [5], 0.03 µg/mL (≈ 0.0519 µM).
Take `CN(C)c1ccc(C(=O)OCC2=C(C(=O)O)N3C(=O)[C@@H](NC(=O)CSc4cc(Cl)ccc4Cl)C3SC2)cc1` (stereo not given in full): the MIC in the data set on Staphylococcus aureus [1] came out at 0.125 µg/mL (≈ 0.21 µM); against Staphylococcus aureus [2], 0.25 µg/mL (≈ 0.419 µM); with Staphylococcus aureus [3], 0.25 µg/mL (≈ 0.419 µM); in the data set on Staphylococcus aureus [4], 0.125 µg/mL (≈ 0.21 µM); in the data set with Staphylococcus aureus [5] it was 0.06 µg/mL (≈ 0.101 µM). The half-life in data set [6] is over 10 h.
As for `O=C(CSc1cc(Cl)ccc1Cl)N[C@@H]1C(=O)N2C(C(=O)O)=C(COC(=O)c3ccncc3)CSC12` (stereo not given in full), the MIC against Staphylococcus aureus [1] came out at 1 µg/mL (≈ 1.8 µM); in the data set with Staphylococcus aureus [2], 8 µg/mL (≈ 14.4 µM); in the data set with Staphylococcus aureus [3] it was 4 µg/mL (≈ 7.21 µM); in the data set on Staphylococcus aureus [4], 0.5 µg/mL (≈ 0.902 µM); against Staphylococcus aureus [5] it was 0.06 µg/mL (≈ 0.108 µM).
In the case of `O=C(CSc1cc(Cl)ccc1Cl)N[C@@H]1C(=O)N2C(C(=O)O)=C(COC(=O)c3ccc(O)cc3)CSC12` (stereo not given in full), the MIC against Staphylococcus aureus [1] is 0.06 µg/mL (≈ 0.105 µM); in the data set with Staphylococcus aureus [2] it was 0.25 µg/mL (≈ 0.439 µM); with Staphylococcus aureus [3] it was 0.5 µg/mL (≈ 0.878 µM); against Staphylococcus aureus [4] it was 0.06 µg/mL (≈ 0.105 µM); against Staphylococcus aureus [5] it was 0.007 µg/mL (≈ 0.0123 µM).
`CC(=O)OCC1=C(C(=O)O)N2C(=O)[C@@H](NC(=O)CSc3cc(Cl)ccc3Cl)C2SC1` (stereo not given in full) came in with a half-life in data set [6] of about 4.17 h. For the same molecule, the ED50 in the data set on Mus musculus is 2 mg/kg. The molecule also returned an MIC with Staphylococcus aureus [7] of 2 µg/mL (≈ 4.07 µM).
Turning to `CC(=O)Oc1ccc(C(=O)OCC2=C(C(=O)O)N3C(=O)[C@@H](NC(=O)CSc4cc(Cl)ccc4Cl)C3SC2)cc1` (stereo not given in full), the MIC worked out at 0.06 µg/mL (≈ 0.0981 µM) against Staphylococcus aureus [1]; 0.125 µg/mL (≈ 0.204 µM) with Staphylococcus aureus [2]; 0.125 µg/mL (≈ 0.204 µM) against Staphylococcus aureus [3]; 0.06 µg/mL (≈ 0.0981 µM) in the data set with Staphylococcus aureus [4]; 0.007 µg/mL (≈ 0.0114 µM) in the data set on Staphylococcus aureus [5].
As for `O=C(CSc1cc(Cl)ccc1Cl)N[C@@H]1C(=O)N2C(C(=O)O)=C(COC(=O)c3ccccc3)CSC12` (stereo not given in full), the MIC worked out at 1 µg/mL (≈ 1.81 µM) with Staphylococcus aureus [1]; 1 µg/mL (≈ 1.81 µM) in the data set on Staphylococcus aureus [2]; 1 µg/mL (≈ 1.81 µM) against Staphylococcus aureus [3]; 0.5 µg/mL (≈ 0.903 µM) with Staphylococcus aureus [4]; 0.06 µg/mL (≈ 0.108 µM) in the data set with Staphylococcus aureus [5]. In data set [6], this molecule yielded a half-life of over 10 h.
Consider `O=C(CSc1cc(Cl)ccc1Cl)N[C@@H]1C(=O)N2C(C(=O)O)=C(COC(=O)c3ccc([N+](=O)[O-])cc3)CSC12` (stereo not given in full), for which the MIC in the data set with Staphylococcus aureus [1] stood at 0.25 µg/mL (≈ 0.418 µM); against Staphylococcus aureus [2] it was 2 µg/mL (≈ 3.34 µM); with Staphylococcus aureus [3], 2 µg/mL (≈ 3.34 µM); in the data set with Staphylococcus aureus [4], 0.25 µg/mL (≈ 0.418 µM); in the data set on Staphylococcus aureus [5], 0.06 µg/mL (≈ 0.1 µM).
In the case of `CN[C@H](CC(C)C)C(=O)N[C@H]1C(=O)N[C@@H](CC(N)=O)C(=O)N[C@H]2C(=O)N[C@H]3C(=O)N[C@H](C(=O)N[C@H](C(=O)O)c4cc(O)cc(O)c4-c4cc3ccc4O)[C@H](O)c3ccc(c(Cl)c3)Oc3cc2cc(c3O[C@@H]2O[C@H](CO)[C@@H](O)[C@H](O)[C@H]2O[C@H]2C[C@](C)(N)[C@H](O)[C@H](C)O2)Oc2ccc(cc2Cl)[C@H]1O` [VANCOMYCIN], the MIC against Staphylococcus aureus [1], against Staphylococcus aureus [2], in the data set on Staphylococcus aureus [3], against Staphylococcus aureus [4] and in the data set on Staphylococcus aureus [5] was 0.25 µg/mL (≈ 0.173 µM) in each case.

For the origin of these results see ChEMBL document CHEMBL1149933, “Synthesis and structure-activity relationship of C-3 benzoyloxymethyl cephalosporins exhibiting anti-MRSA activities” (Bioorg Med Chem Lett, 1997).
